18 compounds from ChEMBL document CHEMBL1121781, “Potential antitumor agents. 34. Quantitative relationships between DNA binding and molecular structure for 9-anilinoacridines substituted in the anilino ring” (J Med Chem, 1981) can be followed below.

Active and inactive are the calls of the source. The calls are words filed in the database; no cut-off is given here.

The subject of series [1] is Nucleic Acid.
Description: Association constant for binding to poly [d(G-C)]
For series [2], the system named is Calf thymus DNA. Conditions: Bos taurus.
Description: (§1) Inhibitory concentration against ethidium binding to DNA
Series [3] relates to Nucleic Acid. This is another data set of the same source.
Description: Association constant for binding to poly [d(A-T)]
Series [4] has as its system Calf thymus DNA. To be noted: Bos taurus. The source holds these as a separate data set.
Description: as §1

Description for Mus musculus: Maximum percent increase in life span of mice
Description for physchem: Ionisation constant (pKa)

Broadly, the pKa is the pH at which an ionisable group is half protonated. Read a high pKa as a group that holds its proton tightly. As to `Ic1ccc(Nc2c3ccccc3nc3ccccc23)cc1`, the values for the Log K with Nucleic Acid [1] and in the series on Nucleic Acid [3] were 6.13 and 6.19, respectively. This compound returned a C50 in the series on Calf thymus DNA [2] of 8.2 µM. For the same compound, the pKa in the series “physchem” was found to be 6.9. Besides, in the series filed under Mus musculus, the ILS result was “inactive”.
In the case of `Oc1ccccc1Nc1c2ccccc2nc2ccccc12`, the Log K in the series on Nucleic Acid [1] is 5.42; in the series on Nucleic Acid [3], 5.36. In the series with Calf thymus DNA [2], this compound had a C50 of 39 µM. Besides, the pKa in “physchem” amounted to 7.8. For the same compound, the ILS result in the series listed under Mus musculus was “inactive”.
On to `O=[N+]([O-])c1cccc(Nc2c3ccccc3nc3ccccc23)c1`, for which the Log K with Nucleic Acid [1] is 5.62; with Nucleic Acid [3], 5.56. This compound also gave a C50 in the series with Calf thymus DNA [2] of 27 µM. The same compound showed a pKa in the series “physchem” of 6.26. In addition, in the series listed under Mus musculus, the ILS entry is “inactive”.
The like results for `CCCCCCNc1ccc(Nc2c3ccccc3nc3ccccc23)cc1` were, in that order, 6.38, 6.43, 1.6 µM, 8.24 and “inactive”.
Turning to `Cc1ccccc1Nc1c2ccccc2nc2ccccc12`, the Log K in the series on Nucleic Acid [1] was found to be 5.23; in the series with Nucleic Acid [3], 5.25. Moreover, the C50 in the series on Calf thymus DNA [4] stood at 67 µM. This compound also had a pKa in the series “physchem” of 7.76.
In the case of `Brc1ccccc1Nc1c2ccccc2nc2ccccc12`, the Log K in the series on Nucleic Acid [1] is 5.32; with Nucleic Acid [3] it was 5.35. The same compound displayed a C50 in the series with Calf thymus DNA [2] of 58 µM. Moreover, the pKa in “physchem” stood at 6.41. In addition, the ILS entry in the series listed under Mus musculus was “inactive”.
For `CC(C)c1ccccc1Nc1c2ccccc2nc2ccccc12`, the results for the Log K with Nucleic Acid [1] and with Nucleic Acid [3] were 4.92 and 5.08, respectively. In the series on Calf thymus DNA [2], this compound showed a C50 of 142 µM. The compound further came in with a pKa in “physchem” of 7.64. The ILS result in the series listed under Mus musculus is “inactive”.
As to `Clc1ccccc1Nc1c2ccccc2nc2ccccc12`, the Log K was determined as 5.47 with Nucleic Acid [1] and 5.39 with Nucleic Acid [3]. The compound further displayed a C50 in the series with Calf thymus DNA [2] of 41 µM. The compound further yielded a pKa in “physchem” of 6.55. Further, the ILS result in the series filed under Mus musculus was “inactive”.
On to `CNc1cccc(Nc2c3ccccc3nc3ccccc23)c1`, for which the Log K is 6.01 in the series with Nucleic Acid [1] and 6.11 in the series with Nucleic Acid [3]. The same compound yielded a C50 in the series with Calf thymus DNA [2] of 7 µM. Further, in “physchem”, the pKa was determined as 7.61. Moreover, the ILS entry in the series listed under Mus musculus was “inactive”.
For `Brc1ccc(Nc2c3ccccc3nc3ccccc23)cc1`, in that order: 5.98, 6.02, 11 µM, 7 and “inactive”.
`COc1cccc(Nc2c3ccccc3nc3ccccc23)c1`: the Log K in the series on Nucleic Acid [1] stood at 5.91; in the series on Nucleic Acid [3], 5.86. The same compound displayed a C50 in the series with Calf thymus DNA [2] of 14 µM. The compound further showed a pKa in the series “physchem” of 7.21. Besides, the ILS result in the series filed under Mus musculus was “inactive”.
With `CS(=O)(=O)Nc1ccccc1Nc1c2ccccc2nc2ccccc12`, the Log K in the series with Nucleic Acid [1] was determined as 6.1; in the series on Nucleic Acid [3], 5.49. This compound registered a C50 in the series on Calf thymus DNA [2] of 7.3 µM. In addition, the pKa in the series “physchem” came to 6.86. For the same compound, in the series listed under Mus musculus, the ILS result is “inactive”.
For the compound `CC(=O)Nc1ccccc1Nc1c2ccccc2nc2ccccc12`, the Log K with Nucleic Acid [1] is 5.46; with Nucleic Acid [3], 5.84. The compound also registered a C50 in the series on Calf thymus DNA [2] of 42 µM. The compound further came in with a pKa in the series “physchem” of 7.24. Also, the ILS entry in the series listed under Mus musculus is “inactive”.
In the case of `Clc1cccc(Nc2c3ccccc3nc3ccccc23)c1`, the Log K with Nucleic Acid [1] and in the series with Nucleic Acid [3] was 6.02 throughout. Also, in the series with Calf thymus DNA [2], the C50 was 11 µM. For the same compound, in the series “physchem”, the pKa was determined as 6.76. The ILS entry in the series listed under Mus musculus is “inactive”.
Consider `CCOc1ccccc1Nc1c2ccccc2nc2ccccc12`, for which the Log K with Nucleic Acid [1] turned out to be 5.08; in the series on Nucleic Acid [3] it was 5.2. In addition, the C50 with Calf thymus DNA [2] was found to be 85 µM. The same compound registered a pKa in “physchem” of 7.85. Moreover, the ILS entry in the series listed under Mus musculus was “inactive”.
For the compound `CNS(=O)(=O)c1ccc(Nc2c3ccccc3nc3ccccc23)cc1`, the Log K worked out at 5.85 with Nucleic Acid [1] and 5.82 in the series with Nucleic Acid [3]. The same compound displayed a C50 in the series on Calf thymus DNA [2] of 16 µM. This compound also displayed a pKa in the series “physchem” of 6.02. Also, the ILS entry in the series listed under Mus musculus was “inactive”.
For `c1cncc(Nc2c3ccccc3nc3ccccc23)c1`, the Log K with Nucleic Acid [1] was 5.96; in the series on Nucleic Acid [3], 5.75. The C50 in the series with Calf thymus DNA [2] was determined as 13 µM. In “physchem”, this compound returned a pKa of 6.46. Also, the ILS entry in the series filed under Mus musculus was “inactive”.
For `CS(=O)(=O)c1ccc(Nc2c3ccccc3nc3ccccc23)cc1`, the figures for the Log K in the series with Nucleic Acid [1] and in the series with Nucleic Acid [3] were 5.88 and 5.86, respectively. Besides, the C50 in the series with Calf thymus DNA [2] came to 14 µM. Also, the pKa in the series “physchem” worked out at 5.81. Further, the ILS result in the series filed under Mus musculus was “inactive”.
